For data set [1], the system named is BEAS-2B cells transfected with JWA-knockdown plasmids. As to the kind of experiment: Colony formation of BEAS-2B cells transfected with JWA-knockdown plasmids (Example 22). Conditions: JAC4-treated JWA-knockdown BEAS-2B vs JAC4-treated si-Control. The data set is classed as cell-based, human. As to the method:
1. SPCA-1 and BEAS-2B cells (or SPCA-1 and BEAS-2B cells transfected with JWA-knockdown plasmids) in the exponential growth phase were plated in 6-well plates at a specific amount. The number of plated cells is as follows
2. After the cells adhered to the container wall, the cells were treated (or not treated) with […] JAC4 and treated with X-ray of 0, 2, 4, or 6 Gy. The medium was replaced with a fresh medium containing JAC4 at the corresponding concentration once every 2 days (or the cells were treated with X-ray of 0, 2, 4, or 6 Gy after adhesion, and the medium was replaced with a fresh medium once every 2 days).
3. After the cells were cultured for 10-14 days, colonies were visually observed. The culture medium was discarded, and the cells were fixed with methanol for 10-20 min, stained with crystal violet for 10 min, slowly washed with flowing clear water thrice, photographed, and counted for colonies containing>50 cells.
4. The colony forming efficiency (CFE)=(number of colonies formed/number of seeded cells) 100% was calculated, and the cell survival fraction (SF)=(colony forming efficiency of treatment group/colony forming efficiency of 0 Gy group)×100% was calculated from the colony forming efficiency. […]

For data set [2], the system named is SPCA-1 cells. Nature of the data set: Subcutaneous SPCA-1 lung cancer xenograft model with X-ray radiation therapy (Example 20). The settings on record: for tumor inhibition rate: day 13, vs control group. The data set is classed as in vivo. As to the method:
SPCA-1 cells in the logarithmic growth phase were subcutaneously injected into male BALB/C nude mice aged 4-5 weeks at 5×10^6 cells/100 μL […]. When the tumor volume reached 60-100 mm^3 (tumor volume=length×width^2/2), the mice were randomized into a vehicle control group, a 100 mg/kg JAC4 group (daily treatment), a 3 Gy×5 X-ray radiation group (5 consecutive days of radiation), and a 100 mg/kg JAC4+3 Gy×5 X-ray radiation group, each containing 6 mice. The formulation of the vehicle for JAC4 was polyethylene glycol:ethanol:physiological saline=40:7.5:52.5, v/v/v. The vehicle group and the treatment groups were given the vehicle or the treatment at the same volume by the same route, respectively. The mice were kept anesthetized by isoflurane through a mask in a supine posture. The irradiation range was adjusted to the tumor and the whole lung with a width of about 2 cm through the width indicating lamp and the beam limiting device of the system. The chamber was closed, and the irradiation time was set to about 126 s according to the dose rate to enable the total dose to reach 3 Gy. The irradiator was turned on for the irradiation. 100 mg/kg JAC4 was administered intragastrically daily. The body weight and tumor volume were measured daily and the modeling was terminated on day 13 post-dose.
After the modeling was finished, the tumor tissue was subjected to HE staining according to the following specific procedures: 3 mice were randomly selected to provide the tumor tissue for HE staining in each group, and 6 fields of view were randomly selected for inspection.

Data set [3] relates to C57BL/6 male mice. As to the kind of experiment: Body weight, spleen and thymus indexes and HE staining after total body irradiation (Example 3). Type of data set: in vivo. As to the method: C57BL/6 male mice (24.8±1,6 g in body weight) aged 10 weeks were divided into 4 groups of 8 mice each. After acclimating to the environment, JAC4 (100 mg/kg) or an equal volume of vehicle (polyethylene glycol:ethanol:physiological saline=47.5:7.5:50, v/v/v) was orally administered to the mice once daily for 7 consecutive days. After that, the mice in one JAC4 treatment group and one vehicle group were subjected to total body X-ray irradiation (6 Gy) and JAC4 or vehicle treatment was continued. After 3 days, the administration of JAC4 or vehicle was discontinued, and blood samples, small intestine tissues, and thymus and spleen tissues were collected 4 days later.
HE staining was performed on spleen tissues and thymus tissues from mice in all groups, with procedures as follows:
(1) Section deparaffinization: 1) xylene I treatment for 5 min; 2) xylene II treatment for 5 min; 3) xylene III treatment for 5 min; 4) 100% ethanol treatment for 5 min; 5) 100% ethanol II treatment for 5 min; 6) 95% ethanol treatment for 5 min; 7) 90% ethanol treatment for 5 min; 8) 85% ethanol treatment for 5 min; 9) 70% ethanol treatment for 5 min; 10) 60% ethanol treatment for 5 min.
(2) HE staining: After being rinsed with double-distilled water, the sections were stained with hematoxylin solution for 6 min, differentiated with 0.5% hydrochloric acid in alcohol for a short period, and then placed in double-distilled water for bluing. When the chromatin within the cell nuclei was clearly visible under a microscope, the sections were stained with 0.5% eosin for 30 s.

In data set [4] the test system is C57BL/6 male mice. Nature of the data set: Body weight after abdominal X-ray irradiation 12 Gy (Example 9). Type of data set: in vivo. The settings on record: JAC4 100 mg/kg oral + abdominal X-ray 12 Gy. As to the method:
CS7BL/6 male mice aged 10 weeks were divided into 3 groups, i.e., a vehicle control group, a vehicle+radiation group, and a JAC4+radiation group 8 days after radiation, with 6 mice in each group. JAC4 (100 mg/kg) or an equal volume of vehicle (polyethylene glycol:ethanol:physiological saline=47.5:7.5:50, v/v/v) was orally administered to the mice once daily for 7 days. After that, the mice were subjected to abdominal X-ray irradiation (12 Gy) and the JAC4 or vehicle treatment was continued for 4 days. The body weights of the mice before and after […] X-ray irradiation were recorded daily, and body weight curves were plotted.

In a further data set the test system is IEC-6 cells. Nature of the data set: Western blot of DNA repair and apoptosis proteins in irradiated IEC-6 cells (Example 14). Type of data set: cell-based. On the technique in general: A western blot detects proteins with antibodies after separation by electrophoresis.
In data set [5] the test system is SPCA-1 cells. As to the kind of experiment: Intracellular ROS (DCFH-DA), SPCA-1 (Example 22). Type of data set: cell-based, human. An excerpt: The large amount of reactive oxygen species (ROS) induced by X-ray and the sustained oxidative stress reaction may cause DNA damage. Superoxide dismutase (SOD) and catalase (CAT) exert antioxidant effects, and the lipid oxidation product malondialdehyde (MDA) and ROS can reflect the oxidative stress level in vivo. The intracellular ROS level was detected using the fluorescent probe DCFH-DA. […] The supernatant of BEAS-2B cells was extracted and subjected to an MDA assay and an activity assay for CAT and SOD.

The mark [6] stands for this setting: JAC4 100 mg/kg oral + TBI 6 Gy vs vehicle + radiation.
Setting [7] is: non-radiation, JAC4 100 mg/kg oral.
Where [8] appears, read: JAC4 1 μM or 10 μM 24 h + 12 Gy, vs control group.

As to `c1ccc(CSc2nnc(C3COc4ccccc4O3)o2)nc1` (centres unmarked) [JAC4], the “cell survival rate (radiosensitization curve)” value in data set [1] is reported as “significantly decreased”. Further, in the data set on SPCA-1 cells [2] (100 mg/kg JAC4 + 3 Gy×5 X-ray combination therapy), the tumor inhibition rate is 78.05%. For the same molecule, in the data set on SPCA-1 cells [2] (100 mg/kg JAC4 intragastric daily, monotherapy), the tumor inhibition rate came to 25.45%. The tumor volume entry in the data set with SPCA-1 cells [2] (100 mg/kg JAC4 monotherapy) is given as “significantly smaller than the control group”. Besides, in the data set with SPCA-1 cells [2] (JAC4 + X-ray combination vs X-ray monotherapy group), the tumor-to-body weight ratio result is on record as “significantly reduced”. For the same molecule, in the data set on SPCA-1 cells [2] (JAC4 in combination with X-ray), the “H&E staining of tumor tissues” value was “promotes the necrosis of tumor tissues”. Further, in the data set on SPCA-1 cells [2] (all groups, JAC4 100 mg/kg with or without X-ray), the death result is “no death occurred”. In the data set on SPCA-1 cells [2] (among all groups, JAC4 100 mg/kg with or without X-ray), the body weight result is “no significant changes”. Moreover, in the data set with C57BL/6 male mice [3] (JAC4 100 mg/kg oral + TBI 6 Gy), the spleen index was 1.31 ± 0.18 mg/g and the thymus index is 1.63 ± 0.24 mg/g. In the data set with C57BL/6 male mice [3] (setting [6]), the “HE staining of spleen tissue after X-ray radiation” value was “no significant difference between the vehicle control group and the JAC4 group”; the “HE staining of thymus tissue after X-ray radiation” value is “no significant difference between the vehicle control group and the JAC4 group”. For the same molecule, the “degree of body weight loss” value in the data set with C57BL/6 male mice [3] (JAC4 100 mg/kg oral, TBI 6 Gy) is recorded as “significantly less than that in the control group”. For the same molecule, in the data set on C57BL/6 male mice [3] (setting [7]), the spleen index was found to be 3.22 ± 0.26 mg/g and the thymus index is 2.51 ± 0.43 mg/g. The body weight curve entry with C57BL/6 male mice [4] was “consistently above that of the vehicle+radiation group”. Besides, in the data set on IEC-6 cells (setting [8]), the “anti-apoptotic proteins (Bcl-2)” value is “increases” and the “pro-apoptotic proteins (spliced PARP1, spliced Caspase-3, spliced Caspase-9, Bax)” value is on record as “decreases”. In the data set on IEC-6 cells (JAC4 treatment after radiation (small intestine tissue and IEC-6 cells)), the XRCC1 expression level entry was “increased its expression level”. The ROS level result in the data set with SPCA-1 cells [5] is recorded as “no significant effect”.

(Values after patent US20250345318A1, “COMPOUND AND USE THEREOF IN PREVENTING OR TREATING RADIATION DAMAGE” (SIMCERE PHARMACEUTICAL CO., LTD., priority 2022, published 2025).)
